Laboratory results reported in patent publication US20090326008A1, “NF-kappa B Inhibitor” (priority 2006, published 2009).

Test system: COX-2 gene expression
Assay: Effects of test compounds on COX-2 gene expression in gastric cancer cell line MKN-45 (real-time PCR)
Format: cell-based, human
Conditions: MKN-45 cells, test compound 1 μM, 16 hours, vs DMSO control = 100%, mean of triplicate
Description: The human gastric cancer cell line MKN-45 obtained from JCRB (Japanese Collection of Research Bioresources) was cultured in Iscove's Modified Dulbecco's Medium (product of GIBCO) containing 10% fetal calf serum for 24 hours using a 6-well plate and a 5% CO2 incubator (37° C., 5% CO2). Test compound solutions prepared by diluting each test compound with DMSO (solvent) to a final concentration of 1 μM, and the same amount of DMSO as a control solution (containing no test compound) were added to the wells of the 6-well plate, and the cells were cultured in a CO2 incubator (37° C., 5% CO2) for 16 hours.
The cells were recovered, and Total RNA was prepared from the cells using Trizole reagent (product of Invitrogen) according to the standard method. Real-time PCR was performed using TaqManO Gene Expression Assays for human COX-2 (product of Applied Biosystems), and the amount of COX-2 mRNA in each test-compound-treated cell were determined. […]
PCR was performed according to the manufacturer's instructions for TaqMan® Gene Expression Assays (product of Applied Biosystems). […] The amount of each mRNA was determined from the calibration curve using the ABI PRISM 7000 Sequence Detection System. […]

## COc1ccc(CC2SC(=S)NC2=O)c2c1N(CCC(C)C)C(=O)CC2 (stereo not shown) [Test Compound 965]
  COX-2 gene expression inhibition (%): >20%
